Experiment in all cases: AK assay 384-well format, Prestwick library screening
Experiment [1] concerns E. faecium. It is filed as cell-based, Enterococcus faecium. The conditions noted are these: 50 μM final drug concentration; for fold induction at 50 µM: Enterococcus faecium, 3 h.
Experiment [2] concerns E. cloacae. Format: cell-based, Enterobacter cloacae. The conditions noted are these: 50 μM final drug concentration; for fold induction at 50 µM: Enterobacter cloacae, 3 h.
For experiment [3], the system named is S. aureus strain USA300-0114. It is filed as cell-based, Staphylococcus aureus. The settings on record: 50 μM final drug concentration; for fold induction at 50 µM: Staphylococcus aureus, USA300, 3 h.
Experiment [4] concerns A. baumannii strain 98-37-09. Format: cell-based, Acinetobacter baumannii. The settings on record: 50 μM final drug concentration; for fold induction at 50 µM: Acinetobacter baumannii, 983709, 3 h.
In experiment [5] the test system is K. pneumoniae. Format: cell-based, Klebsiella pneumoniae. The settings on record: 50 μM final drug concentration; for fold induction at 50 µM: Klebsiella pneumoniae, 3 h.
In experiment [6] the test system is E. coli. Format: cell-based, Escherichia coli. The settings on record: 50 μM final drug concentration; for fold induction at 50 µM: Escherichia coli, 3 h.
The subject of experiment [7] is P. aeruginosa. Format: cell-based, Pseudomonas aeruginosa. The conditions noted are these: 50 μM final drug concentration; for fold induction at 50 µM: Pseudomonas aeruginosa, 3 h.
[8] abbreviates: 384-well format, cutoff for positive-scoring molecules 3-fold increase, read-out: AK-based Prestwick Library Screening Results, E. faecium (increase in extracellular AK activity).
Where [9] appears, read: 384-well format, cutoff for positive-scoring molecules 3-fold increase, read-out: AK-based Prestwick Library Screening Results, E. cloacae (increase in extracellular AK activity).
Setting [10] is: 384-well format, cutoff for positive-scoring molecules 3-fold increase, read-out: AK-based Prestwick Library Screening Results, S. aureus (increase in extracellular AK activity).
Where [11] appears, read: 384-well format, cutoff for positive-scoring molecules 3-fold increase, read-out: AK-based Prestwick Library Screening Results, A. baumannii (increase in extracellular AK activity).
[12] abbreviates: 384-well format, cutoff for positive-scoring molecules 3-fold increase, read-out: AK-based Prestwick Library Screening Results, K. pneumoniae (increase in extracellular AK activity).
The mark [13] stands for this setting: 384-well format, cutoff for positive-scoring molecules 3-fold increase, read-out: AK-based Prestwick Library Screening Results, E. coli (increase in extracellular AK activity).
The mark [14] stands for this setting: 384-well format, cutoff for positive-scoring molecules 3-fold increase, read-out: AK-based Prestwick Library Screening Results, P. aeruginosa (increase in extracellular AK activity).
[15] abbreviates: planktonic, cutoff for positive-scoring molecules 3-fold increase.
The mark [16] stands for this setting: planktonic, cutoff for positive 3-fold increase.
[17] abbreviates: planktonic E. faecium, positive cutoff 3-fold increase, read-out: AK-based Prestwick library screening result, E. faecium (fold increase in extracellular AK activity).
Where [18] appears, read: planktonic E. cloacae, positive cutoff 3-fold increase, read-out: AK-based Prestwick library screening result, E. cloacae (fold increase in extracellular AK activity).
[19] abbreviates: planktonic S. aureus, positive cutoff 3-fold increase, read-out: AK-based Prestwick library screening result, S. aureus (fold increase in extracellular AK activity).
Where [20] appears, read: planktonic A. baumannii, positive cutoff 3-fold increase, read-out: AK-based Prestwick library screening result, A. baumannii (fold increase in extracellular AK activity).
[21] abbreviates: planktonic K. pneumoniae, positive cutoff 3-fold increase, read-out: AK-based Prestwick library screening result, K. pneumoniae (fold increase in extracellular AK activity).
[22] abbreviates: planktonic E. coli, positive cutoff 3-fold increase, read-out: AK-based Prestwick library screening result, E. coli (fold increase in extracellular AK activity).
[23] abbreviates: planktonic P. aeruginosa, positive cutoff 3-fold increase, read-out: AK-based Prestwick library screening result, P. aeruginosa (fold increase in extracellular AK activity).

This note sets out measurements from US10004701B2, “Methods and compositions for treating infection” (UNIVERSITY OF ROCHESTER, priority 2012, dated 2018).

Counter-ions that a name gives are not always drawn. Like-named read-outs stand apart in the source and are kept apart here.

In the case of `COc1c2occc2c(OC)c2c(=O)cc(C)oc12` [Khellin], the fold induction at 50 µM came out at 0.9 in experiment [1] (setting [8]); 0.7 in experiment [2] (setting [9]); 0.7 in experiment [3] (setting [10]); 0.7 in experiment [4] (setting [11]); 0.6 in experiment [5] (setting [12]); 0.6 in experiment [6] (setting [13]). Further, the fold induction at 50 µM in experiment [7] (setting [14]) is 0.7.
For `Cl.OC1CCCCC1N1CCC(c2ccccc2)CC1` (stereo not drawn) [L(−)-vesamicol hydrochloride], the “AK-based Prestwick Library Screening Results, E. faecium (fold increase in extracellular AK activity)” value in experiment [1] (setting [15]) is recorded as 0.9. The “AK-based Prestwick Library Screening Results, E. cloacae (fold increase in extracellular AK activity)” value in experiment [2] (setting [15]) came out at 1.2. In addition, the “AK-based Prestwick Library Screening Results, S. aureus (fold increase in extracellular AK activity)” value in experiment [3] (setting [15]) was found to be 0.8. Also, in experiment [4] (setting [15]), the “AK-based Prestwick Library Screening Results, A. baumannii (fold increase in extracellular AK activity)” value is given as 0.8. In addition, the “AK-based Prestwick Library Screening Results, K. pneumoniae (fold increase in extracellular AK activity)” value in experiment [5] (setting [15]) worked out at 0.7. The “AK-based Prestwick Library Screening Results, E. coli (fold increase in extracellular AK activity)” value in experiment [6] (setting [15]) amounted to 0.8. Also, the “AK-based Prestwick Library Screening Results, P. aeruginosa (fold increase in extracellular AK activity)” value in experiment [7] (setting [15]) amounted to 0.8.
On to `CC(CCc1ccccc1)NCC(O)c1ccc(O)c(C(N)=O)c1` (stereo not drawn) [Labetalol hydrochloride], for which the fold induction at 50 µM in experiment [1] (setting [8]) stood at 0.9; in experiment [2] (setting [9]), 1.3; in experiment [3] (setting [10]), 0.8; in experiment [4] (setting [11]), 0.9; in experiment [5] (setting [12]), 0.7; in experiment [6] (setting [13]), 0.9. For the same molecule, the fold induction at 50 µM in experiment [7] (setting [14]) is 0.9.
`O=C(O)[C@H](O)[C@@H](O)[C@H](O[C@@H]1O[C@H](CO)[C@H](O)[C@H](O)[C@H]1O)[C@H](O)CO` [Lactobionic acid]: in experiment [1] (setting [16]), the “AK-based Prestwick Library Screening Results, E. faecium (fold increase in extracellular AK activity)” value came to 1.0. Further, in experiment [2] (setting [16]), the “AK-based Prestwick Library Screening Results, E. cloacae (fold increase in extracellular AK activity)” value turned out to be 1.2. In experiment [3] (setting [16]), the “AK-based Prestwick Library Screening Results, S. aureus (fold increase in extracellular AK activity)” value is reported as 0.8. For the same molecule, the “AK-based Prestwick Library Screening Results, A. baumannii (fold increase in extracellular AK activity)” value in experiment [4] (setting [16]) is listed as 1.1. Moreover, in experiment [5] (setting [16]), the “AK-based Prestwick Library Screening Results, K. pneumoniae (fold increase in extracellular AK activity)” value stood at 0.9. In addition, the “AK-based Prestwick Library Screening Results, E. coli (fold increase in extracellular AK activity)” value in experiment [6] (setting [16]) is listed as 1.0. Moreover, the “AK-based Prestwick Library Screening Results, P. aeruginosa (fold increase in extracellular AK activity)” value in experiment [7] (setting [16]) is 1.0.
Take `CC(=O)O[C@H]1C[C@H](O[C@H]2[C@@H](O)C[C@H](O[C@H]3[C@@H](O)C[C@H](O[C@H]4CC[C@@]5(C)[C@H](CC[C@@H]6[C@@H]5C[C@@H](O)[C@]5(C)[C@@H](C7=CC(=O)OC7)CC[C@]65O)C4)O[C@@H]3C)O[C@@H]2C)O[C@H](C)[C@H]1O[C@@H]1O[C@H](CO)[C@@H](O)[C@H](O)[C@H]1O` [Lanatoside C]: the “AK-based Prestwick Library Screening Results, E. faecium (fold increase in extracellular AK activity)” value in experiment [1] (planktonic, […]) was determined as 0.9. The “AK-based Prestwick Library Screening Results, E. cloacae (fold increase in extracellular AK activity)” value in experiment [2] (planktonic, […]) is recorded as 1.0. In addition, in experiment [3] (planktonic, […]), the “AK-based Prestwick Library Screening Results, S. aureus (fold increase in extracellular AK activity)” value is 0.7. In experiment [4] (planktonic, […]), the “AK-based Prestwick Library Screening Results, A. baumannii (fold increase in extracellular AK activity)” value is given as 0.8. The “AK-based Prestwick Library Screening Results, K. pneumoniae (fold increase in extracellular AK activity)” value in experiment [5] (planktonic, […]) stood at 0.6. In experiment [6] (planktonic, […]), the “AK-based Prestwick Library Screening Results, E. coli (fold increase in extracellular AK activity)” value is reported as 0.6. Besides, the “AK-based Prestwick Library Screening Results, P. aeruginosa (fold increase in extracellular AK activity)” value in experiment [7] (planktonic, […]) stood at 0.6.
`Cc1c(OCC(F)(F)F)ccnc1C[S+]([O-])c1nc2ccccc2[nH]1` (stereo not drawn) [Lansoprazole]: the fold induction at 50 µM turned out to be 0.6 in experiment [1] (setting [17]); 1 in experiment [2] (setting [18]); 0.2 in experiment [3] (setting [19]); 0.6 in experiment [4] (setting [20]); 0.5 in experiment [5] (setting [21]); 0.6 in experiment [6] (setting [22]). The fold induction at 50 µM in experiment [7] (setting [23]) came to 0.7.
Consider `CC[C@@H](C(=O)[C@@H](C)[C@@H](O)[C@H](C)CCc1ccc(C)c(O)c1C(=O)O)[C@H]1O[C@](CC)([C@H]2CC[C@](O)(CC)[C@H](C)O2)C[C@@H]1C` [Lasalocid sodium salt], for which the fold induction at 50 µM in experiment [1] (planktonic, cutoff for positive-scoring molecules 3-fold increase, read-out: AK-based Prestwick Library Screening Results, E. faecium (fold increase in extracellular AK activity)) worked out at 0.9; in experiment [2] (planktonic, cutoff for positive-scoring molecules 3-fold increase, read-out: AK-based Prestwick Library Screening Results, E. cloacae (fold increase in extracellular AK activity)), 1; in experiment [3] (planktonic, cutoff for positive-scoring molecules 3-fold increase, read-out: AK-based Prestwick Library Screening Results, S. aureus (fold increase in extracellular AK activity)), 3.7; in experiment [4] (planktonic, cutoff for positive-scoring molecules 3-fold increase, read-out: AK-based Prestwick Library Screening Results, A. baumannii (fold increase in extracellular AK activity)), 2.6; in experiment [5] (planktonic, cutoff for positive-scoring molecules 3-fold increase, read-out: AK-based Prestwick Library Screening Results, K. pneumoniae (fold increase in extracellular AK activity)) it was 0.7; in experiment [6] (planktonic, cutoff for positive-scoring molecules 3-fold increase, read-out: AK-based Prestwick Library Screening Results, E. coli (fold increase in extracellular AK activity)), 1. For the same molecule, the fold induction at 50 µM in experiment [7] (planktonic, cutoff for positive-scoring molecules 3-fold increase, read-out: AK-based Prestwick Library Screening Results, P. aeruginosa (fold increase in extracellular AK activity)) turned out to be 0.7.
Regarding `Cc1oncc1C(=O)Nc1ccc(C(F)(F)F)cc1` [Leflunomide], the fold induction at 50 µM worked out at 0.7 in experiment [1] (cutoff for positive-scoring molecules 3-fold increase, read-out: AK-based Prestwick Library Screening Results, E. faecium (fold increase in extracellular AK activity)); 1.5 in experiment [2] (cutoff for positive-scoring molecules 3-fold increase, read-out: AK-based Prestwick Library Screening Results, E. cloacae (fold increase in extracellular AK activity)); 0.6 in experiment [3] (cutoff for positive-scoring molecules 3-fold increase, read-out: AK-based Prestwick Library Screening Results, S. aureus (fold increase in extracellular AK activity)); 0.8 in experiment [4] (cutoff for positive-scoring molecules 3-fold increase, read-out: AK-based Prestwick Library Screening Results, A. baumannii (fold increase in extracellular AK activity)); 0.6 in experiment [5] (cutoff for positive-scoring molecules 3-fold increase, read-out: AK-based Prestwick Library Screening Results, K. pneumoniae (fold increase in extracellular AK activity)); 0.8 in experiment [6] (cutoff for positive-scoring molecules 3-fold increase, read-out: AK-based Prestwick Library Screening Results, E. coli (fold increase in extracellular AK activity)). The fold induction at 50 µM in experiment [7] (cutoff for positive-scoring molecules 3-fold increase, read-out: AK-based Prestwick Library Screening Results, P. aeruginosa (fold increase in extracellular AK activity)) was 0.8.
Take `N#Cc1ccc(C(c2ccc(C#N)cc2)n2cncn2)cc1` [Letrozole]: the fold induction at 50 µM stood at 1 in experiment [1] (setting [17]); 1.4 in experiment [2] (setting [18]); 1.2 in experiment [3] (setting [19]); 1.3 in experiment [4] (setting [20]); 1.1 in experiment [5] (setting [21]); 1.2 in experiment [6] (setting [22]). The fold induction at 50 µM in experiment [7] (setting [23]) is 1.
